Data reported in ChEMBL document CHEMBL3045966, “Synthesis and Selective Bioactivity of New Pyrazolecarboxamide Derivatives” (J Pestic Sci, 1999).

What was measured:
Tetranychus urticae [1] = assay: Acaricidal activity against Tetranychus urticae (two-spotted spider mite) reared on kidney bean leaves followed by compound exposure through leaf dipping assessed as mite mortality at 3 ppm measured after 3 days; format: functional; conditions: foliar, 72 h
[2] = Toxicity against Oryzias latipes (Japanese medaka) assessed as fish mortality at 0.05 ppm measured after 3 days; format: organism-based; conditions: in vivo
[3] = Toxicity against Oryzias latipes (Japanese medaka) assessed as fish mortality at 0.5 ppm measured after 3 days; format: organism-based; conditions: in vivo
Tetranychus urticae [4] = assay: Acaricidal activity against Tetranychus urticae (two-spotted spider mite) reared on kidney bean leaves followed by compound exposure through leaf dipping assessed as mite mortality at 10 ppm measured after 3 days; format: functional; conditions: foliar, 72 h
Tetranychus urticae [5] = assay: Acaricidal activity against Tetranychus urticae (two-spotted spider mite) reared on kidney bean leaves followed by compound exposure through leaf dipping assessed as mite mortality at 300 ppm measured after 3 days; format: functional; conditions: foliar, 72 h
Tetranychus urticae [6] = assay: Acaricidal activity against Tetranychus urticae (two-spotted spider mite) reared on kidney bean leaves followed by compound exposure through leaf dipping assessed as mite mortality at 30 ppm measured after 3 days; format: functional; conditions: foliar, 72 h

Compound	mortality at 3 ppm (Tetranychus urticae [1]) [%]	mortality at 72 h, 0.05 ppm [2] [%]	mortality at 72 h, 0.5 ppm [3] [%]	mortality at 10 ppm (Tetranychus urticae [4]) [%]	mortality at 300 ppm (Tetranychus urticae [5]) [%]	mortality at 30 ppm (Tetranychus urticae [6]) [%]
CCOCCc1ccc(OCCNC(=O)c2cc(C(C)(C)C)nn2C)c(C)c1	0	1	100	0	100	30
CCCc1nn(C)c(C(=O)N(CCOc2ccc(CCOCC)cc2C)C(C)=O)c1Cl	–	0	100	–	0	0
CCOCCc1ccc(OCCN(C(=O)c2cc(C(C)(C)C)nn2C)C(=O)C(C)C)c(C)c1	0	0	0	100	100	100
CCOCCc1ccc(OCCN(C(C)=O)C(=O)c2cc(C3CC3)nn2C)c(C)c1	–	0	51	–	100	0
CCCCCC(=O)N(CCOc1ccc(CCOCC)cc1C)C(=O)c1c(Cl)c(C)nn1C	30	1	100	80	100	100
CCCc1cc(C(=O)NCCOc2ccc(CCOCC)cc2C)n(C)n1	0	1	100	0	0	0
CCOCCc1ccc(OCCN(C(C)=O)C(=O)c2cc(C(C)(C)C)nn2C)c(C)c1	0	0	1	80	100	100
CCOCCc1ccc(OCCNC(=O)c2c(Cl)c(C(C)(C)C)nn2C)c(C)c1	0	0	0	30	30	30
CCCc1cc(C(=O)N(CCOc2ccc(CCOCC)cc2C)C(C)=O)n(C)n1	0	0	51	0	100	30
CCOCCc1ccc(OCCN(C(C)=O)C(=O)c2c(Cl)c(C)nn2C)c(C)c1	30	1	100	80	100	100
CCOCCc1ccc(OCCNC(=O)c2c(Cl)c(CC)nn2C)c(C)c1	0	100	100	100	100	100
CCOCCc1ccc(OCCN(C(C)=O)C(=O)c2c(Cl)cnn2C)c(C)c1	–	0	0	–	0	0
CCCCCCCCCCC(=O)N(CCOc1ccc(CCOCC)cc1C)C(=O)c1c(Cl)c(C)nn1C	0	0	51	0	100	100
CCOCCc1ccc(OCCN(C(C)=O)C(=O)c2c(Cl)c(C(C)(C)C)nn2C)c(C)c1	–	0	0	–	80	0
CCOCCc1ccc(OCCNC(=O)c2cc(CC)nn2C)c(C)c1	0	51	100	0	100	30
CCOCCc1ccc(OCCN(C(C)=O)C(=O)c2c(Cl)c(CC)nn2C)c(C)c1	0	51	100	30	100	100
CCOCCc1ccc(OCCN(C(=O)CC)C(=O)c2c(Cl)c(C)nn2C)c(C)c1	0	0	100	100	100	100
CCOCCc1ccc(OCCNC(=O)c2cc(C)nn2C)c(C)c1	0	0	0	0	30	0
CCOCCc1ccc(OCCN(C(=O)CC)C(=O)c2cc(C(C)(C)C)nn2C)c(C)c1	0	0	1	0	100	100
CCOCCc1ccc(OCCN(C(C)=O)C(=O)c2cc(C)nn2C)c(C)c1	0	0	1	0	100	100
CCCC(=O)N(CCOc1ccc(CCOCC)cc1C)C(=O)c1c(Cl)c(C)cn1C	0	0	100	30	100	100
CCOCCc1ccc(OCCN(C(=O)c2ccccc2)C(=O)c2cc(C(C)(C)C)nn2C)c(C)c1	0	0	0	0	100	100
CCOCCc1ccc(OCCN(C(C)=O)C(=O)c2cc(C(C)C)nn2C)c(C)c1	0	0	100	30	100	100
CCOCCc1ccc(OCCN(C(=O)c2cc(C(C)(C)C)nn2C)C(=O)C2CC2)c(C)c1	0	0	0	30	100	100
CCOCCc1ccc(OCCN(C(C)=O)C(=O)c2cc(CC)nn2C)c(C)c1	0	0	100	0	100	100
CCOCCc1ccc(OCCNC(=O)c2c(Cl)c(C)nn2C)c(C)c1	0	100	100	100	100	100
